One may read the logP as the decadic logarithm of the partition coefficient of the neutral form, usually between octanol and water. Higher therefore signals higher lipophilicity. For orientation: chromatographic logP means a lipophilicity value derived from retention on a column.

The text below walks through data of patent publication US9000189B2, “Biphenyl-substituted spirocyclic ketoenols” (Bayer CropScience AG, priority 2006, dated 2015).

Where two headings read alike, the source gives them in different places. A value given as a limit tells only on which side of the number the result lay.

Data set [1] has as its system green peach aphid (Myzus persicae). In words: Example 3: Myzus test (MYZUPE spray treatment). In kind it is in vivo. The note with it: 144 h, read-out: efficacy (effect in %, aphids killed).
The test system of data set [2] is larvae of the mustard beetle (Phaedon cochleariae). In words: Example 1: Phaedon test (PHAECO spray treatment). The conditions noted are these: 168 h, read-out: efficacy (effect in %, beetle larvae killed).
Data set [3] in a line: Example A: penetration of active compounds through enzymatically isolated cuticles of apple leaves. In kind it is in vitro ADME, apple trees of the Golden Delicious variety. The note with it: 500 ppm in DMF/emulsifier W 7:1 (w/w), 20° C., 60% rh. The source says:
Boosting of the penetration into the plant by ammonium salts or phosphonium salts, and synergistic boosting of penetration into the plants by ammonium/phosphonium salts in combination with penetration promoters
This test measured the penetration of active compounds through enzymatically isolated cuticles of apple leaves.
The leaves used were cut in the fully developed state from apple trees of the Golden Delicious variety. The cuticles were isolated as follows: • first of all, leaf discs labelled on the underside with dye and formed by punching were filled by means of vacuum infiltration with a pectinase solution (0.2% to 2% strength) buffered to a pH of between 3 and 4, • sodium azide was then added and • the leaf discs thus treated were left to stand until the original leaf structure broke down and the non-cellular cuticle underwent detachment.
After that, only those cuticles from the top leaf sides that were free from stomata and hairs were used. They were washed a number of times in alternation with water and a buffer solution of pH 7. The clean cuticles obtained were, finally, applied to Teflon plaques, smoothed with a gentle jet of air, and dried.
In the next step the cuticular membranes obtained in this way were placed in stainless steel diffusion cells (=transport chambers) for the purpose of membrane transport investigations. […]
The diffusion cells were filled with a 30% strength ethylene glycol/water solution. Penetration was determined by applying 10 μl of the spray liquor of the composition below to the outer side of each of the cuticles. […]
After the spray liquors had been applied, the water was evaporated and the chambers were inverted and placed into theromstated troughs, in which the temperature and humidity over the cuticles was adjustable by means of a gentle stream of air onto the cuticles, with the spray coating (20° C., 60% rh). At regular intervals, samples were taken using an autosampler, and the amount of active compound was determined using HPLC. […]

In data set [4] the test system is green peach aphid (Myzus persicae). Put plainly: Example 13: activity boost through ammonium/phosphonium salts in combination with penetrants, Myzus persicae test. The note with it: for Kill (%) after 6 d +RME 1000 pm: +RME 1000 pm (rapeseed oil methyl ester 500 EW); for Kill (%) after 6 d: no additive, bell pepper plants sprayed to runoff. In kind it is in vivo. The text has this:
Activity Boost Through Ammonium/Phosphonium Salts in Combination with Penetrants
(§1) Solvent: 7 parts by weight of dimethylformamide
(§2) Emulsifier: 2 parts by weight of alkylaryl polyglycol ether
(§3) For application with ammonium salts or phosphonium salts and penetration promoters (rapeseed oil methyl ester 500 EW) these are in each case added in a concentration of 1000 ppm to the spray liquor.
Bell pepper plants (Capsicum annuum) heavily infested by the green peach aphid (Myzus persicae) are sprayed to runoff point with the preparation of active compound at the desired concentration.
(§4) After the desired period of time, the kill in % is determined.

The nature of data set [5]: Determination of the log P values by HPLC on a reversed-phase column (C18), acidic range. In kind it is physicochemical. The note with it: HPLC reversed-phase C18, 43° C., acidic range (pH 2.3). The procedure: Determination of the Log P Values
The log P values given in the table were determined in accordance with EEC Directive 79/831 Annex V.A8 by HPLC (High Performance Liquid Chromatography) on a reversed-phase column (C18). Temperature: 43° C.
Mobile phases for the determination in the acidic range (pH 2.3): 0.1% aqueous phosphoric acid, acetonitrile; linear gradient from 10% acetonitrile to 90% acetonitrile
The calibration was carried out using unbranched alkan-2-ones (having 3 to 16 carbon atoms) with known log P values (determination of the log P values by the retention times using linear interpolation between two successive alkanones).
The lambda max values were determined in the maxima of the chromatographic signals using the UV spectra from 200 nm to 400 nm.

Data set [6] has as its system caterpillars of the army worm (Spodoptera frugiperda). In words: Example 2: Spodoptera frugiperda test (SPODFR spray treatment). In kind it is in vivo. The note with it: application rate 100 g/ha, after 7 d.
The test system of data set [7] is cotton aphid (Aphis gossypii). Put plainly: Example 14: Aphis gossypii test (spray to runoff, with ammonium salts and penetrants). The conditions noted are these: for Kill (%) after 6 d +AS + RME 1000 ppm each: + AS and RME 1000 ppm each; for Kill (%) after 6 d +AS 1000 ppm: + ammonium sulphate 1000 ppm; for Kill (%) after 6 d +RME 1000 pm: + rapeseed oil methyl ester; for Kill (%) after 6 d: active compound alone. The class given is in vivo.
From the text: as §1, §2, §3
Cotton plants (Gossypium hirsutum) which are heavily infested by the cotton aphid (Aphis gossypii) are sprayed to runoff point with the preparation of active compound at the desired concentration.
as §4

Where [8] appears, read: application rate 500 g/ha, after 6 d.
Setting [9] is: reversed-phase HPLC column (C18).

For the molecule `Cc1ccc(-c2ccc(F)c(F)c2)c(C)c1C1=C(OC(=O)C(C)C)C2(CCOCC2)OC1=O` [Example I-2-b-3], in data set [1] (setting [8]), the pest or weed control at 500 g/ha is no less than 80%.
Turning to `COC1=C(c2c(C)ccc(-c3ccc(F)cc3)c2C)C(=O)NC12CCOCC2` [Example I-1-f-1], the pest or weed control at 500 g/ha in data set [1] (setting [8]) and in data set [2] was no less than 80% each time.
On to `COc1ccc(-c2ccc(C)c(C3=C(O)C4(CCOCC4)NC3=O)c2)cc1F` [Example I-1-a-2], for which the pest or weed control at 500 g/ha in data set [1] (setting [8]) and in data set [2] was no less than 80% throughout.
In the case of `Cc1ccc(-c2ccc(F)cc2)c(C)c1C1=C(O)C2(CCOCC2)NC1=O` [Example I-1-a-4], the “Penetration after 24 h/% EC” value in data set [3] (EC alone, average of 8 to 10 measurements) is given as 3%. Moreover, in data set [3] (with rapeseed oil methyl ester 1 g/l and ammonium sulphate 1 g/l), the “Penetration after 24 h/% EC + RME (1 g/l) + AS (1 g/l)” value came out at 30%. The “Penetration after 24 h/% EC + RME (1 g/l)” value in data set [3] (with rapeseed oil methyl ester 1 g/l) was 8%. In addition, in data set [4] (0.8 ppm active compound), the “Kill (%) after 6 d +AS 1000 ppm” value came to 0%, the “Kill (%) after 6 d +AS + RME 1000 ppm each” value was 5%, the “Kill (%) after 6 d +RME 1000 pm” value amounted to 0% and the “Kill (%) after 6 d” value is given as 0%. In data set [4] (4 ppm active compound), the “Kill (%) after 6 d +AS 1000 ppm” value turned out to be 20%, the “Kill (%) after 6 d +AS + RME 1000 ppm each” value is on record as 98%, the “Kill (%) after 6 d +RME 1000 pm” value was determined as 5% and the “Kill (%) after 6 d” value amounted to 15%.
`O=C1OC2(CCCCC2)C(O)=C1c1cc(-c2ccc(F)cc2)ccc1Cl` [Example I-2-a-10] came in with a logP in data set [5] of 3.37.
Molecule `Cc1ccc(-c2ccc(F)cc2)cc1C1=C(OC(=O)C(C)C)C2(CCCC2)OC1=O` [Example I-2-b-1] returned a chromatographic logP in data set [5] (setting [9]) of 4.85.
For `Cc1ccc(-c2ccc(F)cc2)c(C)c1C1=C(OC(=O)C(C)C)C2(CCOCC2)OC1=O` [Example I-2-b-2], in data set [2], the pest or weed control at 500 g/ha is no less than 80%.
Turning to `O=C1OC2(CCCC2)C(O)=C1c1cc(-c2ccc(F)cc2F)ccc1Cl` [Example I-2-a-5], the lipophilicity (logP) in data set [5] worked out at 3.16.
On the same count and under the same terms, as for `O=C1OC2(CCCC2)C(O)=C1c1cc(-c2ccc(F)cc2)ccc1Cl` [Example I-2-a-7], the figure is 3.09.
On to `Cc1ccc(-c2ccc(F)cc2)cc1C1=C(O)C2(CCCC2)OC1=O` [Example I-2-a-1], for which the pest or weed control at 500 g/ha in data set [1] (setting [8]) and in data set [2] was no less than 80% in each case. This molecule showed a chromatographic logP in data set [5] (setting [9]) of 3.12.
Turning to `CCC(=O)OC1=C(c2c(C)ccc(-c3ccc(F)cc3)c2C)C(=O)NC12CCOCC2` [Example I-1-b-1], the pest or weed control at 500 g/ha in data set [1] (setting [8]) is no less than 80%.
`CCOC(=O)C1(OC(=O)Cc2cc(-c3ccc(F)cc3)ccc2C)CCCCC1` [III-1]: the chromatographic logP in data set [5] (setting [9]) was 5.43.
`Cc1ccc(-c2ccc(F)c(Cl)c2)cc1C1=C(O)C2(CCCC2)OC1=O` [Example I-2-a-4]: in data set [5], the log partition coefficient (logP) is on record as 3.50.
Regarding `O=C1NC2(CCOCC2)C(O)=C1c1cc(-c2ccc(F)c(C(F)(F)F)c2)ccc1Cl` [Example I-1-a-24], the pest or weed control at 500 g/ha in data set [1] (setting [8]) and in data set [2] was no less than 80% in each case.
In turn, `O=C1OC2(CCCCC2)C(O)=C1c1cc(-c2cc(F)c(F)c(F)c2)ccc1Cl` [Example I-2-a-9] gave a log partition coefficient (logP) in data set [5] of 3.65.
The same measure, in the same setting: in the case of `Cc1ccc(-c2ccc(F)c(F)c2)cc1C1=C(O)C2(CCOCC2)OC1=O` [Example I-2-a-13] it was 2.69; in that of `Cc1ccc(-c2ccc(F)cc2)c(C)c1C1=C(O)C2(CCOCC2)OC1=O` [Example I-2-a-11], 2.76; in that of `Cc1ccc(-c2ccc(F)c(F)c2)cc1C1=C(O)C2(CCCC2)OC1=O` [Example I-2-a-3], 3.25.
Still for that read-out and setting: in the case of `O=C1OC2(CCCC2)C(O)=C1c1cc(-c2ccc(F)c(F)c2)ccc1Cl` [Example I-2-a-2] it was 3.19.
On to `O=C1OC2(CCCC2)C(O)=C1c1cc(-c2cc(F)c(F)c(F)c2)ccc1Cl` [Example I-2-a-6], for which, in data set [6], the “efficacy (effect in %, caterpillars killed)” value is recorded as no less than 80%. In data set [5], this molecule registered a lipophilicity (logP) of 3.35.
Regarding `CCOC(=O)OC1=C(c2c(C)ccc(-c3ccc(F)cc3)c2C)C(=O)NC12CCOCC2` [Example I-1-c-1], the pest or weed control at 500 g/ha in data set [1] (setting [8]) was no less than 80%.
For `Cc1ccc(-c2ccc(F)cc2)cc1C1=C(O)C2(CCOCC2)OC1=O` [Example I-2-a-12], in data set [5], the logP was 2.62.
As for `O=C1OC2(CCCCC2)C(O)=C1c1cc(-c2ccc(F)c(F)c2)ccc1Cl` [Example I-2-a-8], the logP in data set [5] stood at 3.48.
The molecule `CCOC(=O)C1(OC(=O)Cc2cc(Br)ccc2C)CCCC1` [III-1′] returned a chromatographic logP in data set [5] (setting [9]) of 4.52.
Take `Cc1ccc(-c2ccc(F)cc2)cc1C1=C(O)C2(CCOCC2)NC1=O` [Example I-1-a-1]: the pest or weed control at 500 g/ha in data set [1] (setting [8]) and in data set [2] was no less than 80% in each case. For the same molecule, the “Kill (%) after 6 d +AS 1000 ppm” value is given as 0% in data set [4] (0.8 ppm active compound), 15% in data set [4] (4 ppm active compound), 0% in data set [7] (4 ppm) and 5% in data set [7] (20 ppm). In addition, the “Kill (%) after 6 d +AS + RME 1000 ppm each” value in data set [4] (0.8 ppm active compound) was found to be 15%; in data set [4] (4 ppm active compound) it was 99%; in data set [7] (4 ppm) it was 60%; in data set [7] (20 ppm), 80%. For the same molecule, the “Kill (%) after 6 d +RME 1000 pm” value in data set [4] (0.8 ppm active compound) is recorded as 0%; in data set [4] (4 ppm active compound), 70%; in data set [7] (4 ppm), 0%; in data set [7] (20 ppm), 15%. Moreover, the “Kill (%) after 6 d” value in data set [4] (0.8 ppm active compound), in data set [4] (4 ppm active compound), in data set [7] (4 ppm) and in data set [7] (20 ppm) was 0% each time.
Turning to `CCOC(=O)OC1=C(c2cc(-c3ccc(F)cc3)ccc2C)C(=O)OC12CCCCC2` [Example I-2-c-1], the pest or weed control at 500 g/ha in data set [1] and in data set [2] was no less than 80% in each case. This molecule also registered a chromatographic logP in data set [5] of 4.84.
On to `Cc1ccc(-c2ccc(F)cc2)cc1C1=C(O)C2(CCCCC2)OC1=O` [Example I-2-a-15], for which the pest or weed control at 500 g/ha in data set [1] and in data set [2] was no less than 80% in each case. In data set [5], this molecule displayed a chromatographic logP of 3.4.
The molecule `Cc1ccc(-c2ccc(F)c(F)c2)c(C)c1C1=C(O)C2(CCOCC2)OC1=O` [Example I-2-a-16] returned a logP in data set [5] of 2.88.
In data set [5], `Cc1ccc(-c2cc(F)c(F)c(F)c2)cc1C1=C(O)C2(CCOCC2)OC1=O` [Example I-2-a-14] had a lipophilicity (logP) of 2.87. The logP values of the last two molecules are within 0.2 log units of each other.
